In patent US9938261B2, “Heterocyclic compounds and methods of use thereof” (AMBIT BIOSCIENCES CORPORATION, priority 2011, dated 2018):
Read-outs that look alike come from different tables or passages of the source.

What was measured:
[1] = system: M-NFS-60 cells; assay: M-NFS-60 cell proliferation assay (Alamar Blue); assay type: cell-based, mouse; conditions: Mus musculus, read-out: CSF1R M-NFS-60 CTB:IC50
Outline: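 Alamar Blue reduction (3 h; 560/590 nm) measured viability after 72 h, 37 °C treatment with nine half-log compound concentrations at 0.5% DMSO. Cells: M-CSF-dependent (20 ng/mL) murine M-NFS-60 in RPMI plus 10% FBS. IC50s, averaged from duplicates, reflect half-maximal inhibition of proliferation relative to control.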

[2] = target: kinase panel containing either 386 or 392 distinct kinases; assay: Kinase selectivity score S10 from competition binding panel
Experimental: Competition binding assays used herein were developed, validated and performed as described in Fabian et al., Nature Biotechnology 2005, 23, 329-336. Kinases were produced as fusions to T7 phage (See, Fabian et al. or WO04/015142) or alternatively, the kinases were expressed in HEK-293 cells and subsequently tagged with DNA for PCR detection (See, WO08/005310). For the binding assays, streptavidin-coated magnetic beads were treated with biotinylated affinity ligands for 30 min at room temperature to generate affinity resins. The liganded beads were blocked with excess biotin and washed with blocking buffer (SeaBlock (Pierce), 1% BSA, 0.05% Tween 20, 1 mM DTT) to remove unbound ligand and to reduce non-specific binding. Binding reactions were assembled by combining kinase, liganded affinity beads, and test compounds in 1× binding buffer (20% SeaBlock, 0.17×PBS, 0.05% Tween 20, 6 mM DTT). Test compounds were prepared as 100× stocks in DMSO and diluted into the aqueous environment. Kds were determined using an eleven point threefold serial dilutions. DMSO or control compounds were was added to control assays lacking a test compound. Primary screen assays were performed in polypropylene 384-well plates in a final volume of 20-40 μL, while Kd determinations were performed in polystyrene 96-well plates in a final volume of 135 μL. The assay plates were incubated at room temperature with shaking for 1 hour to allow the binding reactions to reach equilibrium, and the affinity beads were washed extensively with wash buffer (1×PBS, 0.05% Tween 20) to remove unbound protein. The beads were then resuspended in elution buffer (1×PBS, 0.05% Tween […] non-biotinylated affinity ligand) and incubated at room temperature with shaking for 30 min. The kinase concentration in the eluates was measured by quantitative PCR.
A selectivity score (S10) is a quantitative measure of selectivity of a compound against a panel of kinases. An S10 was calculated for a compound by dividing the number of kinases found to have a percent of control (DMSO) less than 10 by the total number of distinct kinases tested (excluding mutant variants). Percent of control (POC) is calculated by subtracting the signal of the control compound (POC=0) from the signal of the test compound and dividing the outcome by the signal of DMSO (POC=100) minus the signal of the control compound. For the compounds disclosed herein, S10 scores were obtained by testing the compounds at 10 μM concentration in a kinase panel containing either 386 or 392 distinct kinases.

[3] = target: CSF1R (Homo sapiens, UniProt P07333); assay: Competition binding assay, CSF1R Kd; design: made in house
Outline: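 Kinases, either T7 phage fusions or HEK-293-expressed and DNA-tagged, competed with test compounds for immobilized biotinylated affinity ligand on streptavidin beads in binding buffer (20% SeaBlock, 0.17×PBS, 0.05% Tween 20, 6 mM DTT). After 1 hour at room temperature, bead-bound kinase was eluted and quantified by qPCR; Kd from eleven-point threefold dilutions.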

[4] = 72 hours incubation, M-CSF 20 ng/mL
[5] = compounds at 10 μM, 386 or 392 distinct kinases
[6] = 10 μM, panel of 386 or 392 distinct kinases

Sequence of CSF1R (P07333 20-972): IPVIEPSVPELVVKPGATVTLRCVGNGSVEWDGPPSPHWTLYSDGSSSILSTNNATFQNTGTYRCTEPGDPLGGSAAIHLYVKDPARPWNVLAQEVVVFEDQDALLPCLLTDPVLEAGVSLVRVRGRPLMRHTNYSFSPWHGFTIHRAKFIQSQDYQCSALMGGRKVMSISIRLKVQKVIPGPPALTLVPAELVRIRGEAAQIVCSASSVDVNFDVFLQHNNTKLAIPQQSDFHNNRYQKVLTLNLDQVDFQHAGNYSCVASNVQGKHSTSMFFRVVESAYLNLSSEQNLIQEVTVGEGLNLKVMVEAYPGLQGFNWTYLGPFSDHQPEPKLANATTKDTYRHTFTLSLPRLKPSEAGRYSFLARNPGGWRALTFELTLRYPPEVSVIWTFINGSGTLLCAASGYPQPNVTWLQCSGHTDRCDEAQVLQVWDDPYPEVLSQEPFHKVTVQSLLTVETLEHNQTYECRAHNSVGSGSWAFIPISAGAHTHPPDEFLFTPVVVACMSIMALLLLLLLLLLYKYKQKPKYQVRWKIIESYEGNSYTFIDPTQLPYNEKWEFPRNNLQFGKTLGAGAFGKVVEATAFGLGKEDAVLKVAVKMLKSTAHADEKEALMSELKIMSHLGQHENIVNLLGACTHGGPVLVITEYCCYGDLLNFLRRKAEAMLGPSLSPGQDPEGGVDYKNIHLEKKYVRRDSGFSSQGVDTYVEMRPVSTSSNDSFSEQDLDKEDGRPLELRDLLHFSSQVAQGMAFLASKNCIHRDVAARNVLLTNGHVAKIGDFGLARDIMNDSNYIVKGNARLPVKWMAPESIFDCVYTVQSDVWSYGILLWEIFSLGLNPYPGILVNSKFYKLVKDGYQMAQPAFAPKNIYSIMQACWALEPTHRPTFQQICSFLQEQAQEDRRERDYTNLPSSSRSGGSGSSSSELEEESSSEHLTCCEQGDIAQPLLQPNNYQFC

With N#Cc1ccc2ncn(Cc3ccc4nc(N[C@@H]5CCCC[C@H]5O)sc4c3)c2n1 [Example 87, 3-((2-(((1R,2R)-2-hydroxycyclohexyl)amino)benzo[d]thiazol-6-yl)methyl)-3H-imidazo[4,5-b]pyridine-5-carbonitrile] the IC50 [1, 4] was no more than 0.05 µM, the “Kinase specificity S(10)” value [2, 5] was “B (0.01<B≤0.02)” and the Kd [3] was no more than 0.005 µM.
C#Cc1cnc2c(c1)ncn2Cc1ccc2nc(N[C@@H]3CCCC[C@H]3O)sc2c1 [Example 96, (1R,2R)-2-((6-((6-ethynyl-3H-imidazo[4,5-b]pyridin-3-yl)methyl)benzo[d]thiazol-2-yl)amino)cyclohexanol] was tested, and the IC50 [1, 4] was no more than 0.05 µM, the “Kinase specificity S(10)” value [2, 5] was “C (C>0.02)” and the Kd [3] was 0.005 to 0.02 µM.
With O[C@@H]1CCCC[C@H]1Nc1nc2ccc(Cn3cnc4cc(N5CCOCC5)cnc43)cc2s1 [Example 97, (1R,2R)-2-((6-((6-morpholino-3H-imidazo[4,5-b]pyridin-3-yl)methyl)benzo[d]thiazol-2-yl)amino)cyclohexanol] the IC50 [1, 4] was no more than 0.05 µM, the “Kinase specificity S(10)” value [2, 5] was “B (0.01<B≤0.02)” and the Kd [3] was 0.005 to 0.02 µM.
In the case of C=Cc1cnc2c(c1)ncn2Cc1ccc2nc(N[C@@H]3CCCC[C@H]3O)sc2c1 [Example 98, (1R,2R)-2-((6-((6-vinyl-3H-imidazo[4,5-b]pyridin-3-yl)methyl)benzo[d]thiazol-2-yl)amino)cyclohexanol], the IC50 [1, 4] is reported as no more than 0.05 µM, the “Kinase specificity S(10)” value [2, 5] is reported as “B (0.01<B≤0.02)” and the Kd [3] is reported as 0.005 to 0.02 µM.
In the case of CC(=O)NCc1cnc2c(c1)ncn2Cc1ccc2nc(N[C@@H]3CCCC[C@H]3O)sc2c1 [Example 99, N-((3-((2-(((1R,2R)-2-hydroxycyclohexyl)amino)benzo[d]thiazol-6-yl)methyl)-3H-imidazo[4,5-b]pyridin-6-yl)methyl)acetamide], the IC50 [1, 4] is reported as greater than 1.5 µM, the “Kinase specificity S(10)” value [2, 5] is reported as “A (A≤0.01)” and the Kd [3] is reported as greater than 0.05 µM.
In the case of O[C@@H]1CCCC[C@H]1Nc1nc2ccc(Cn3cnc4cc(Br)ccc43)cc2s1 [Example 100, (1R,2R)-2-((6-((5-bromo-1H-benzo[d]imidazol-1-yl)methyl)benzo[d]thiazol-2-yl)amino)cyclohexanol], the IC50 [1, 4] is reported as 0.05 to 0.4 µM, the “Kinase specificity S(10)” value [2, 5] is reported as “A (A≤0.01)” and the Kd [3] is reported as 0.005 to 0.02 µM.
With CC(=O)Nc1cn(Cc2ccc3nc(N[C@@H]4CCCC[C@H]4O)sc3c2)cn1 [Example 101, N-(1-((2-(((1R,2R)-2-hydroxycyclohexyl)amino)benzo[d]thiazol-6-yl)methyl)-1H-imidazol-4-yl)acetamide] the IC50 [1, 4] was 0.05 to 0.4 µM, the “Kinase specificity S(10)” value [2, 5] was “B (0.01<B≤0.02)” and the Kd [3] was 0.02 to 0.05 µM.
In the case of CCc1cnc2c(c1)ncn2Cc1ccc2nc(N[C@@H]3CCCC[C@H]3O)sc2c1 [Example 102, (1R,2R)-2-((6-((6-ethyl-3H-imidazo[4,5-b]pyridin-3-yl)methyl)benzo[d]thiazol-2-yl)amino)cyclohexanol], the IC50 [1, 4] is reported as no more than 0.05 µM, the “Kinase specificity S(10)” value [2, 5] is reported as “B (0.01<B≤0.02)” and the Kd [3] is reported as 0.005 to 0.02 µM.
CS(=O)(=O)c1ccc2ncn(Cc3ccc4nc(N[C@@H]5CCCC[C@H]5O)sc4c3)c2n1 [Example 106, (1R,2R)-2-((6-((5-(methylsulfonyl)-3H-imidazo[4,5-b]pyridin-3-yl)methyl)benzo[d]thiazol-2-yl)amino)cyclohexanol] was tested, and the IC50 ([1]; M-NFS-60 cell proliferation) was greater than 1.5 µM, the “Kinase specificity S(10)” value [2, 6] was “A (A≤0.01)” and the Kd ([3]; competition binding) was 0.02 to 0.05 µM.
In the case of O[C@@H]1CCCC[C@H]1Nc1nc2ccc(Cn3cnc4ccc(Br)cc43)cc2s1 [Example 107, (1R,2R)-2-((6-((6-bromo-1H-benzo[d]imidazol-1-yl)methyl)benzo[d]thiazol-2-yl)amino)cyclohexanol], the IC50 ([1]; M-NFS-60 cell proliferation) is reported as 0.05 to 0.4 µM, the “Kinase specificity S(10)” value [2, 6] is reported as “B (0.01<B≤0.02)” and the Kd ([3]; competition binding) is reported as 0.005 to 0.02 µM.
With N#CCOc1ccc2c(c1)ncn2Cc1ccc2nc(N[C@@H]3CCCC[C@H]3O)sc2c1 [Example 196, 2-((1-((2-(((1R,2R)-2-hydroxycyclohexyl)amino)benzo[d]thiazol-6-yl)methyl)-1H-benzo[d]imidazol-5-yl)oxy)acetonitrile] the IC50 ([1]; M-NFS-60 cell proliferation) was 0.05 to 0.4 µM, the “Kinase specificity S(10)” value [2, 6] was “A (A≤0.01)” and the Kd ([3]; competition binding) was no more than 0.005 µM.
With Fc1cnc2c(c1)ncn2Cc1ccc2nc(N[C@@H]3CCCC[C@H]3Cl)sc2c1 [Example 198, N-((1R,2R)-2-chlorocyclohexyl)-6-((6-fluoro-3H-imidazo[4,5-b]pyridin-3-yl)methyl)benzo[d]thiazol-2-amine] the IC50 ([1]; M-NFS-60 cell proliferation) was 0.05 to 0.4 µM, the “Kinase specificity S(10)” value [2, 6] was “B (0.01<B≤0.02)” and the Kd ([3]; competition binding) was no more than 0.005 µM.
For OC1CCN(c2ccn3c(Cc4ccc5nc(N[C@@H]6CCCC[C@H]6O)sc5c4)cnc3c2)CC1 [Example 199, 1-(3-((2-(((1R,2R)-2-hydroxycyclohexyl)amino)benzo[d]thiazol-6-yl)methyl)imidazo[1,2-a]pyridin-7-yl)piperidin-4-ol], the IC50 ([1]; M-NFS-60 cell proliferation) was greater than 1.5 µM, the “Kinase specificity S(10)” value [2, 6] was “A (A≤0.01)” and the Kd ([3]; competition binding) was 0.005 to 0.02 µM.
For CC(=O)c1ccn2c(Cc3ccc4nc(N[C@@H]5CCCC[C@H]5O)sc4c3)cnc2c1 [Example 200, 1-(3-((2-(((1R,2R)-2-hydroxycyclohexyl)amino)benzo[d]thiazol-6-yl)methyl)imidazo[1,2-a]pyridin-7-yl)ethanone], the IC50 ([1]; M-NFS-60 cell proliferation) was 0.05 to 0.4 µM, the “Kinase specificity S(10)” value [2, 6] was “A (A≤0.01)” and the Kd ([3]; competition binding) was 0.005 to 0.02 µM.
CC(O)c1ccn2c(Cc3ccc4nc(N[C@@H]5CCCC[C@H]5O)sc4c3)cnc2c1 (stereo partly drawn) [Example 201, (1R,2R)-2-((6-((7-(1-hydroxyethyl)imidazo[1,2-a]pyridin-3-yl)methyl)benzo[d]thiazol-2-yl)amino)cyclohexanol] was tested, and the IC50 ([1]; M-NFS-60 cell proliferation) was greater than 1.5 µM, the “Kinase specificity S(10)” value [2, 6] was “A (A≤0.01)” and the Kd ([3]; competition binding) was 0.02 to 0.05 µM.
In the case of CC(=NO)c1ccn2c(Cc3ccc4nc(N[C@@H]5CCCC[C@H]5O)sc4c3)cnc2c1 [Example 202, 1-(3-((2-(((1R,2R)-2-hydroxycyclohexyl)amino)benzo[d]thiazol-6-yl)methyl)imidazo[1,2-a]pyridin-7-yl)ethanone oxime], the IC50 ([1]; M-NFS-60 cell proliferation) is reported as 0.05 to 0.4 µM, the “Kinase specificity S(10)” value [2, 6] is reported as “A (A≤0.01)” and the Kd ([3]; competition binding) is reported as 0.005 to 0.02 µM.
In the case of O[C@@H]1CCCC[C@H]1Nc1nc2ccc(Cn3cnc4cc(Br)cc(F)c43)cc2s1 [Example 203, (1R,2R)-2-((6-((5-bromo-7-fluoro-1H-benzo[d]imidazol-1-yl)methyl)benzo[d]thiazol-2-yl)amino)cyclohexanol], the IC50 ([1]; M-NFS-60 cell proliferation) is reported as 0.05 to 0.4 µM, the “Kinase specificity S(10)” value [2, 6] is reported as “A (A≤0.01)” and the Kd ([3]; competition binding) is reported as 0.005 to 0.02 µM.
For CON=C(C)c1ccn2c(Cc3ccc4nc(N[C@@H]5CCCC[C@H]5O)sc4c3)cnc2c1 [Example 204, 1-(3-((2-(((1R,2R)-2-hydroxycyclohexyl)amino)benzo[d]thiazol-6-yl)methyl)imidazo[1,2-a]pyridin-7-yl)ethanone O-methyl oxime], the IC50 ([1]; M-NFS-60 cell proliferation) was 0.05 to 0.4 µM, the “Kinase specificity S(10)” value [2, 6] was “A (A≤0.01)” and the Kd ([3]; competition binding) was 0.005 to 0.02 µM.
O[C@@H]1CCCC[C@H]1Nc1nc2ccc(Cc3cnc4[nH]c5ccccc5n34)cc2s1 [Example 205, (1R,2R)-2-((6-((9H-benzo[d]imidazo[1,2-a]imidazol-3-yl)methyl)benzo[d]thiazol-2-yl)amino)cyclohexanol] was tested, and the IC50 ([1]; M-NFS-60 cell proliferation) was 0.4 to 1.5 µM, the “Kinase specificity S(10)” value [2, 6] was “B (0.01<B≤0.02)” and the Kd ([3]; competition binding) was 0.005 to 0.02 µM.
In the case of N#Cc1cc(F)c2c(c1)ncn2Cc1ccc2nc(N[C@@H]3CCCC[C@H]3O)sc2c1 [Example 206, 7-fluoro-1-((2-(((1R,2R)-2-hydroxycyclohexyl)amino)benzo[d]thiazol-6-yl)methyl)-1H-benzo[d]imidazole-5-carbonitrile], the IC50 ([1]; M-NFS-60 cell proliferation) is reported as 0.05 to 0.4 µM, the “Kinase specificity S(10)” value [2, 6] is reported as “A (A≤0.01)” and the Kd ([3]; competition binding) is reported as 0.005 to 0.02 µM.
